Measurements as given in patent publication US12122761B2, “2-azaspiro[3.4]octane derivatives as M4 agonists” (NOVARTIS AG, priority 2019, dated 2024).

Key:
[1] = biological target: T1, human cloned CHRM2 receptor (M2_CHO cells) (Homo sapiens, UniProt P08172); experiment: CHRM2 Ca++ Flux Assay (agonist mode, FDSS 7000EX); assay type: cell-based; conditions: for Emax: Percent Activity measured to EC100 of Carbachol, read-out: M2 FDSS PA; for EC50: agonist mode, geometric mean if tested more than once, read-out: M2 FDSS EC50
T1 construct: expressed in transfected cells; host or cells: CHO-K1
T1 sequence (P08172 1-466): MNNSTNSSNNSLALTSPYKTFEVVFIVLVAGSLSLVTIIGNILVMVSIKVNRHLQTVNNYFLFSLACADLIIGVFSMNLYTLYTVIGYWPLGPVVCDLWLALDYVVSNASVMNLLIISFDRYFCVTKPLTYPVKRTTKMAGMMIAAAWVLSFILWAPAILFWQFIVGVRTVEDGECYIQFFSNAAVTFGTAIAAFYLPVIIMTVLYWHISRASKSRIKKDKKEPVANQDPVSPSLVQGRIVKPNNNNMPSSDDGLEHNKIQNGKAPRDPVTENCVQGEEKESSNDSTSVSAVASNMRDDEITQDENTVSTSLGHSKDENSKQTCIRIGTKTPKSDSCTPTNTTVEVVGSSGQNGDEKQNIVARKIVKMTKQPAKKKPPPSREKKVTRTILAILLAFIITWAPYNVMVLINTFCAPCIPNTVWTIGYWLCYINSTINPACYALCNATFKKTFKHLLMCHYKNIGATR
In short: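 Response expressed as percent activity versus the Carbachol EC100, with curves fitted by four-parameter non-linear regression of triplicates. Stable M2_CHO cells were Ca++ dye-loaded and preincubated 60 min at room temperature in assay buffer containing 20 μM ATP; signal imaged for 3 minutes after compound.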

[2] = biological target: T2, human cloned CHRM5 receptor (M5_CHO) (Homo sapiens, UniProt P08912); experiment: CHRM5 Ca++ Flux Assay (agonist mode, FDSS 7000EX); assay type: cell-based; conditions: for Emax: Percent Activity measured to EC100 of Carbachol, read-out: M5 FDSS PA; for EC50: agonist mode, geometric mean if tested more than once, read-out: M5 FDSS EC50
T2 construct: expressed in transfected cells; host or cells: CHO (M5_CHO)
T2 sequence (P08912 1-532): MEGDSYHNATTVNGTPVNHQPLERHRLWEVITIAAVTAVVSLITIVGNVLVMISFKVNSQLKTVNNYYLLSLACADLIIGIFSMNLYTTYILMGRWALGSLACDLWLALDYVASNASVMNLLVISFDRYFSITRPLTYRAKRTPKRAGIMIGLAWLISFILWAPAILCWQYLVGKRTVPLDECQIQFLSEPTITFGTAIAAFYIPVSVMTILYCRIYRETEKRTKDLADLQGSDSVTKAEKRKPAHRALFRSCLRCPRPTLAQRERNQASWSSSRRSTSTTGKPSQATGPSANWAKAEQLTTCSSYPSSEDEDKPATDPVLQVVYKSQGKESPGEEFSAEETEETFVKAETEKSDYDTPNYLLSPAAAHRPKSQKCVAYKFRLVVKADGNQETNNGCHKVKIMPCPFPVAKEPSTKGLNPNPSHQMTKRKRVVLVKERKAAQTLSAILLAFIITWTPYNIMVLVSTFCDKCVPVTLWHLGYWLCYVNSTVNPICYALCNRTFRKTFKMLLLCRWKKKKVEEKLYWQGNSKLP
In short: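 Fluorescent intracellular Ca++ signal, recorded for 3 min, served as read-out for CHO-K1 cells stably carrying human M3 or M5 receptor. Triplicate 11-point dose responses were averaged and fitted to a four-parameter model, with percent activity referenced to the carbachol EC100.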

SMILES	Emax [1]	EC50 [1]	Emax [2]	EC50 [2]
CC1(COc2ccccc2C2CCN([C@@H]3CCC4(C3)CN(c3nnco3)C4)CC2)CCOCC1 [Example 2E, (R)-2-(6-(4-(2-((4-methyltetrahydro-2H-pyran-4-yl)methoxy)phenyl)piperidin-1-yl)-2-azaspiro[3.4]octan-2-yl)-1,3,4-oxadiazole]	10%	90 nM	0%	> 25000 nM
c1ccc(C2CCN([C@@H]3CCC4(C3)CN(c3nnco3)C4)CC2)c(OC2CCOCC2)c1 [Example 2F, (R)-2-(6-(4-(2-((tetrahydro-2H-pyran-4-yl)oxy)phenyl)piperidin-1-yl)-2-azaspiro[3.4]octan-2-yl)-1,3,4-oxadiazole]	22%	64 nM	0%	> 25000 nM
c1ccc(C2CCN([C@@H]3CCC4(C3)CN(c3nnco3)C4)CC2)c(OCC2CCOCC2)c1 [Example 2G, (R)-2-(6-(4-(2-((tetrahydro-2H-pyran-4-yl)methoxy)phenyl)piperidin-1-yl)-2-azaspiro[3.4]octan-2-yl)-1,3,4-oxadiazole]	19%	136 nM	0%	> 25000 nM
c1ccc(C2CCN([C@@H]3CCC4(C3)CN(c3nnco3)C4)CC2)c(C2CCOCC2)c1 [Example 2H, (R)-2-(6-(4-(2-(tetrahydro-2H-pyran-4-yl)phenyl)piperidin-1-yl)-2-azaspiro[3.4]octan-2-yl)-1,3,4-oxadiazole]	32%	458 nM	0%	> 25000 nM
Fc1ccc(C2CCOCC2)c(C2CCN([C@@H]3CCC4(C3)CN(c3nnco3)C4)CC2)c1 [Example 2I, (R)-2-(6-(4-(5-fluoro-2-(tetrahydro-2H-pyran-4-yl)phenyl)piperidin-1-yl)-2-azaspiro[3.4]octan-2-yl)-1,3,4-oxadiazole]	41%	125 nM	0%	> 25000 nM
c1ccc(C2CCOC2)c(C2CCN([C@@H]3CCC4(C3)CN(c3nnco3)C4)CC2)c1 (stereo partly drawn) [Example 2K, 2-((6R)-6-(4-(2-(tetrahydrofuran-3-yl)phenyl)piperidin-1-yl)-2-azaspiro[3.4]octan-2-yl)-1,3,4-oxadiazole]	29%	159 nM	0%	> 25000 nM
c1ccc(C2CCN([C@@H]3CCC4(C3)CN(c3nnco3)C4)CC2)c(CC2CCOCC2)c1 [Example 2L, (R)-2-(6-(4-(2-((tetrahydro-2H-pyran-4-yl)methyl)phenyl)piperidin-1-yl)-2-azaspiro[3.4]octan-2-yl)-1,3,4-oxadiazole]	0%	–	0%	> 25000 nM
c1ccc(C2CCN([C@@H]3CCC4(C3)CN(c3nnco3)C4)CC2)c(-c2ncco2)c1 [Example 2M, (R)-2-(6-(4-(2-(oxazol-2-yl)phenyl)piperidin-1-yl)-2-azaspiro[3.4]octan-2-yl)-1,3,4-oxadiazole]	18%	343 nM	0%	> 25000 nM
c1ccc(C2CCN([C@@H]3CCC4(C3)CN(c3nncs3)C4)CC2)c(OC2COC2)c1 [Example 3A, (R)-2-(6-(4-(2-(oxetan-3-yloxy)phenyl)piperidin-1-yl)-2-azaspiro[3.4]octan-2-yl)-1,3,4-thiadiazole]	21%	76 nM	0%	> 25000 nM
c1ccc(C2CCN([C@@H]3CCC4(C3)CN(c3nncs3)C4)CC2)c(OC[C@H]2COCCO2)c1 [Example 3B, 2-((R)-6-(4-(2-(((R)-1,4-dioxan-2-yl)methoxy)phenyl)piperidin-1-yl)-2-azaspiro[3.4]octan-2-yl)-1,3,4-thiadiazole]	16%	18 nM	0%	> 25000 nM
c1ccc(C2CCN([C@@H]3CCC4(C3)CN(c3nncs3)C4)CC2)c(OC[C@@H]2COCCO2)c1 [Example 3C, 2-((R)-6-(4-(2-(((S)-1,4-dioxan-2-yl)methoxy)phenyl)piperidin-1-yl)-2-azaspiro[3.4]octan-2-yl)-1,3,4-thiadiazole]	18%	24 nM	0%	> 25000 nM
COc1ccccc1C1CCN([C@@H]2CCC3(C2)CN(c2nncs2)C3)CC1 [Example 3D, (R)-2-(6-(4-(2-methoxyphenyl)piperidin-1-yl)-2-azaspiro[3.4]octan-2-yl)-1,3,4-thiadiazole]	17%	–	0%	> 25000 nM
Fc1cccc(C2CCN([C@@H]3CCC4(C3)CN(c3nncs3)C4)CC2)c1OC1COC1 [Example 3E, (R)-2-(6-(4-(3-fluoro-2-(oxetan-3-yloxy)phenyl)piperidin-1-yl)-2-azaspiro[3.4]octan-2-yl)-1,3,4-thiadiazole]	31%	191 nM	0%	> 25000 nM
COCCOc1ccccc1C1CCN([C@@H]2CCC3(C2)CN(c2nncs2)C3)CC1 [Example 3F, (R)-2-(6-(4-(2-(2-methoxyethoxy)phenyl)piperidin-1-yl)-2-azaspiro[3.4]octan-2-yl)-1,3,4-thiadiazole]	0%	–	0%	> 25000 nM
CC(C)(O)COc1ccccc1C1CCN([C@@H]2CCC3(C2)CN(c2nncs2)C3)CC1 [Example 3G, (R)-1-(2-(1-(2-(1,3,4-thiadiazol-2-yl)-2-azaspiro[3.4]octan-6-yl)piperidin-4-yl)phenoxy)-2-methylpropan-2-ol]	20%	304 nM	0%	> 25000 nM
CC(C)(O)CCOc1ccccc1C1CCN([C@@H]2CCC3(C2)CN(c2nncs2)C3)CC1 [Example 3H, (R)-4-(2-(1-(2-(1,3,4-thiadiazol-2-yl)-2-azaspiro[3.4]octan-6-yl)piperidin-4-yl)phenoxy)-2-methylbutan-2-ol]	0%	–	0%	> 25000 nM
COc1ccccc1C1CCN([C@@H]2CCC3(C2)CN(c2ccns2)C3)CC1 [Example 3I, (R)-5-(6-(4-(2-methoxyphenyl)piperidin-1-yl)-2-azaspiro[3.4]octan-2-yl)isothiazole]	40%	–	0%	> 25000 nM
COCCOc1ccccc1C1CCN([C@@H]2CCC3(C2)CN(c2ncns2)C3)CC1 [Example 3J, (R)-5-(6-(4-(2-(2-methoxyethoxy)phenyl)piperidin-1-yl)-2-azaspiro[3.4]octan-2-yl)-1,2,4-thiadiazole]	0%	–	0%	> 25000 nM
CC(C)(O)COc1ccccc1C1CCN([C@@H]2CCC3(C2)CN(c2ncns2)C3)CC1 [Example 3K, (R)-1-(2-(1-(2-(1,2,4-thiadiazol-5-yl)-2-azaspiro[3.4]octan-6-yl)piperidin-4-yl)phenoxy)-2-methylpropan-2-ol]	0%	–	0%	> 25000 nM
CC(C)(O)CCOc1ccccc1C1CCN([C@@H]2CCC3(C2)CN(c2ncns2)C3)CC1 [Example 3L, (R)-4-(2-(1-(2-(1,2,4-thiadiazol-5-yl)-2-azaspiro[3.4]octan-6-yl)piperidin-4-yl)phenoxy)-2-methylbutan-2-ol]	0%	–	0%	> 25000 nM
COc1ccccc1C1CCN([C@@H]2CCC3(C2)CN(c2nc(C)ns2)C3)CC1 [Example 3M, (R)-5-(6-(4-(2-methoxyphenyl)piperidin-1-yl)-2-azaspiro[3.4]octan-2-yl)-3-methyl-1,2,4-thiadiazole]	0%	–	0%	> 25000 nM
Fc1cncc(N2CC3(CC[C@@H](N4CCC(c5ccccc5C5CCOCC5)CC4)C3)C2)c1 [Example 5AA, (R)-2-(5-fluoropyridin-3-yl)-6-(4-(2-(tetrahydro-2H-pyran-4-yl)phenyl)piperidin-1-yl)-2-azaspiro[3.4]octane]	28%	1770 nM	0%	> 25000 nM
